Test results as given in ChEMBL document CHEMBL1221277, “Design, synthesis and anticholinesterase activity of a novel series of 1-benzyl-4-((6-alkoxy-3-oxobenzofuran-2(3H)-ylidene) methyl) pyridinium derivatives” (Bioorg Med Chem, 2010).

These compounds were tested against Acetylcholinesterase (Electrophorus electricus, UniProt O42275) (assay: Inhibition of electric eel AChE by Ellman's method).
Chain of Acetylcholinesterase (O42275 whole entry): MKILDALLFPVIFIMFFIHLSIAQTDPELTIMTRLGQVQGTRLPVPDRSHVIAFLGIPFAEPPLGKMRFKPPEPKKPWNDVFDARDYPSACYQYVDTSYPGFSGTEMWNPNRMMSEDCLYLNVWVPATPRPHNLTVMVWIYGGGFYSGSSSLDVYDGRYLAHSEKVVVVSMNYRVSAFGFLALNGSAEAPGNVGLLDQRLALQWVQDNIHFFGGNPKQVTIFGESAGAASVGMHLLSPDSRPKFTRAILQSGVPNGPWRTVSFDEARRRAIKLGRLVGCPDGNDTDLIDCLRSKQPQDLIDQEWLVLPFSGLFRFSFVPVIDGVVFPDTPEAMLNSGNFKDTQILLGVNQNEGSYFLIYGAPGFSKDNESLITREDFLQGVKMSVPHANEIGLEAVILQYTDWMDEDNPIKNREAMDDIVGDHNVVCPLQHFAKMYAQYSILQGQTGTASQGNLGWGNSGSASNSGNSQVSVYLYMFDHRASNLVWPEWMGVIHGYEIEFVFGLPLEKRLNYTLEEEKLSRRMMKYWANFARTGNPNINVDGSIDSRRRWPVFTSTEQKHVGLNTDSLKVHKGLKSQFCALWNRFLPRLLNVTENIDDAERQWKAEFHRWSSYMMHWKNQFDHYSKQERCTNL
For `CCCOc1ccc2c(c1)O/C(=C\c1cc[n+](Cc3ccc(C)cc3)cc1)C2=O`, the IC50 was 0.612 µM.
`CCOc1ccc2c(c1)O/C(=C\c1cc[n+](Cc3ccc(C)cc3)cc1)C2=O` gave an IC50 of 0.79 µM.
`CCCOc1ccc2c(c1)O/C(=C\c1cc[n+](Cc3ccccc3)cc1)C2=O` gave an IC50 of 0.08 µM.
`CCCOc1ccc2c(c1)O/C(=C\c1cc[n+](Cc3ccccc3F)cc1)C2=O` was tested, and the IC50 was 0.05 µM.
`CCCOc1ccc2c(c1)O/C(=C\c1cc[n+](Cc3cccc(F)c3)cc1)C2=O` gave an IC50 of 0.107 µM.
For `CCCOc1ccc2c(c1)O/C(=C\c1cc[n+](Cc3ccc(F)cc3)cc1)C2=O`, the IC50 was 0.068 µM.
`CCCOc1ccc2c(c1)O/C(=C\c1cc[n+](Cc3ccccc3C)cc1)C2=O` was tested, and the IC50 was 0.328 µM.
With `CCCOc1ccc2c(c1)O/C(=C\c1cc[n+](Cc3cccc(C)c3)cc1)C2=O` the IC50 was 0.234 µM.
Compound `COc1ccc2c(c1)O/C(=C\c1cc[n+](Cc3ccc(C)cc3)cc1)C2=O` has an IC50 of 0.475 µM.
With `CCOc1ccc2c(c1)O/C(=C\c1cc[n+](Cc3ccccc3)cc1)C2=O` the IC50 was 0.063 µM.
With `CCOc1ccc2c(c1)O/C(=C\c1cc[n+](Cc3ccccc3F)cc1)C2=O` the IC50 was 0.032 µM.
Compound `CCOc1ccc2c(c1)O/C(=C\c1cc[n+](Cc3cccc(F)c3)cc1)C2=O` has an IC50 of 0.048 µM.
In the case of `CCOc1ccc2c(c1)O/C(=C\c1cc[n+](Cc3ccc(F)cc3)cc1)C2=O`, the IC50 is reported as 0.051 µM.
`CCOc1ccc2c(c1)O/C(=C\c1cc[n+](Cc3ccccc3C)cc1)C2=O` gave an IC50 of 0.546 µM.
For `CCOc1ccc2c(c1)O/C(=C\c1cc[n+](Cc3cccc(C)c3)cc1)C2=O`, the IC50 was 0.399 µM.
For `COc1ccc2c(c1)O/C(=C\c1cc[n+](Cc3ccccc3)cc1)C2=O`, the IC50 was 0.041 µM.
Compound `COc1ccc2c(c1)O/C(=C\c1cc[n+](Cc3ccccc3F)cc1)C2=O` has an IC50 of 0.01 µM.
`COc1ccc2c(c1)O/C(=C\c1cc[n+](Cc3cccc(F)c3)cc1)C2=O` was tested, and the IC50 was 0.06 µM.
In the case of `COc1ccc2c(c1)O/C(=C\c1cc[n+](Cc3ccc(F)cc3)cc1)C2=O`, the IC50 is reported as 0.022 µM.
In the case of `COc1ccc2c(c1)O/C(=C\c1cc[n+](Cc3ccccc3C)cc1)C2=O`, the IC50 is reported as 0.068 µM.
Compound `COc1ccc2c(c1)O/C(=C\c1cc[n+](Cc3cccc(C)c3)cc1)C2=O` has an IC50 of 0.123 µM.
